Each structure is given as a SMILES string. Where a SMILES comes first, the peptide text is derived from it.

This data set can be described thus: Water solubility of peptides when preparing stock solutions. The data set is classed as physicochemical. The conditions noted are these: stock solution in sterile distilled water or 100% DMSO; read-out: solubility of peptide (water soluble or water insoluble, dissolved in DMSO). Put shortly: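 Water-soluble peptides from water stocks and insoluble ones from 100% DMSO stocks (50 mg/ml), each diluted to 2 mg/ml in water then into media. Added singly or as pools to 350,000 PBMC in anti-IL-4 ELISPOT wells at 10 μg/ml final per peptide. Identically diluted media-only controls.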
In the case of `CC[C@H](C)[C@H](NC(=O)[C@H](Cc1ccc(O)cc1)NC(=O)[C@H](C)NC(=O)[C@H](CC(=O)O)NC(=O)[C@H](C)NC(=O)[C@@H](N)C(C)C)C(=O)N[C@H](C(=O)N[C@@H](CC(C)C)C(=O)N[C@H](C(=O)N[C@H](C(=O)N[C@@H](CC(C)C)C(=O)N1CCC[C@H]1C(=O)N[C@@H](CCCCN)C(=O)N[C@@H](CO)C(=O)N[C@@H](CO)C(=O)O)[C@@H](C)O)C(C)C)[C@@H](C)O` [Peptide 38.3, VADAYITLVTLPKSS], the solubility – broadly, the dissolved amount per volume that the medium holds – is < 2500 µg/mL. Next, `CC(C)[C@H](NC(=O)[C@H](Cc1ccc(O)cc1)NC(=O)[C@H](CO)NC(=O)[C@H](CO)NC(=O)[C@H](C)NC(=O)[C@H](CC(=O)O)NC(=O)[C@H](CO)NC(=O)[C@H](C)NC(=O)[C@H](Cc1ccccc1)NC(=O)[C@H](Cc1ccc(O)cc1)NC(=O)[C@@H](NC(=O)[C@H](Cc1ccc(O)cc1)NC(=O)[C@H](C)NC(=O)CNC(=O)[C@@H](N)CCCCN)C(C)C)C(=O)O` [Peptide 68.2.1, KGAYVYFASDASSYV] (H-KGAYVYFASDASSYV-OH): < 2500 µg/mL; `CC(C)C[C@H](NC(=O)CNC(=O)[C@H](CC(C)C)NC(=O)[C@H](CC(C)C)NC(=O)[C@H](CC(C)C)NC(=O)[C@H](Cc1ccc(O)cc1)NC(=O)[C@H](C)NC(=O)[C@H](C)NC(=O)[C@H](CC(C)C)NC(=O)[C@H](Cc1c[nH]cn1)NC(=O)[C@H](CCCCN)NC(=O)[C@@H](N)CC(C)C)C(=O)NCC(=O)NCC(=O)N[C@@H](CC(N)=O)C(=O)O` [Peptide 57.2.1, LKHLAAYLLLGLGGN] (H-LKHLAAYLLLGLGGN-OH): > 2500 µg/mL; `CC[C@H](C)[C@H](NC(=O)[C@H](Cc1ccc(O)cc1)NC(=O)[C@H](C)NC(=O)[C@H](CC(=O)O)NC(=O)[C@H](C)NC(=O)[C@@H](NC(=O)CNC(=O)[C@H](CCC(N)=O)NC(=O)[C@@H](NC(=O)[C@@H](NC(=O)[C@H](Cc1ccccc1)NC(=O)[C@H](CC(=O)O)NC(=O)[C@H](CCCCN)NC(=O)[C@@H]1CCCN1)C(C)C)C(C)C)C(C)C)C(=O)N[C@H](C(=O)O)[C@@H](C)O` [Peptide 38.2.1, PKDFVVQGVADAYIT] (H-PKDFVVQGVADAYIT-OH): < 2500 µg/mL. Regarding `CC[C@H](C)[C@H](NC(=O)[C@H](CC(N)=O)NC(=O)[C@H](Cc1ccccc1)NC(=O)CNC(=O)[C@H](CC(C)C)NC(=O)[C@H](CO)NC(=O)[C@H](CC(N)=O)NC(=O)[C@@H](N)Cc1ccc(O)cc1)C(=O)N[C@@H](CCCCN)C(=O)N[C@@H](C)C(=O)N[C@H](C(=O)N[C@@H](CC(N)=O)C(=O)NCC(=O)NCC(=O)N[C@H](C(=O)O)[C@@H](C)O)[C@@H](C)O` [Peptide 35.3, YNSLGFNIKATNGGT] (H-YNSLGFNIKATNGGT-OH), the solubility was < 2500 µg/mL. The result for `CC[C@H](C)[C@H](NC(=O)[C@H](CC(N)=O)NC(=O)[C@H](Cc1ccccc1)NC(=O)CNC(=O)[C@H](CC(C)C)NC(=O)[C@@H](N)CO)C(=O)N[C@@H](CCCCN)C(=O)N[C@@H](C)C(=O)N[C@H](C(=O)N[C@@H](CC(N)=O)C(=O)NCC(=O)NCC(=O)N[C@H](C(=O)N[C@@H](CC(C)C)C(=O)N[C@@H](CC(=O)O)C(=O)O)[C@@H](C)O)[C@@H](C)O` [Peptide 35.4, SLGFNIKATNGGTLD] (H-SLGFNIKATNGGTLD-OH) reads > 2500 µg/mL; that for `CC[C@H](C)[C@H](NC(=O)[C@H](CCC(N)=O)NC(=O)CNC(=O)[C@H](CO)NC(=O)[C@H](CCCNC(=N)N)NC(=O)[C@H](CC(C)C)NC(=O)CNC(=O)[C@@H](NC(=O)[C@@H](NC(=O)[C@@H](NC(=O)[C@H](CC(=O)O)NC(=O)[C@H](C)N)[C@@H](C)CC)C(C)C)C(C)C)C(=O)N[C@@H](CCCCN)C(=O)N[C@H](C(=O)NCC(=O)O)[C@@H](C)O` [Peptide 44.2, ADIVVGLRSGQIKTG] (H-ADIVVGLRSGQIKTG-OH), > 2500 µg/mL.

With `CC(C)C[C@H](NC(=O)[C@H](CCC(N)=O)NC(=O)[C@H](Cc1c[nH]c2ccccc12)NC(=O)[C@H](Cc1c[nH]cn1)NC(=O)[C@H](CC(C)C)NC(=O)[C@@H](NC(=O)[C@H](CC(N)=O)NC(=O)[C@H](Cc1ccc(O)cc1)NC(=O)[C@H](CO)NC(=O)[C@H](CC(N)=O)NC(=O)[C@@H](NC(=O)[C@H](Cc1c[nH]c2ccccc12)NC(=O)[C@@H](NC(=O)[C@@H](NC(=O)CN)[C@@H](C)O)C(C)C)C(C)C)[C@@H](C)O)C(=O)O` [Peptide 72.2, GTVWVNSYNTLHWQL] (H-GTVWVNSYNTLHWQL-OH), the solubility is < 2500 µg/mL.

The values are drawn from patent publication US20130259884A1, “PEPTIDES” ([…] SL, priority 2010, published 2013).
